US8975415B2, “Chromane compounds” (CoMentis, Inc., priority 2012, dated 2015)

Tests used:
BACE1 [1] = target: T1, BACE1 (Homo sapiens (Human), UniProt P56817); test: Measurement of Aβ production inhibition in cell (SK-N-BE(2) neuroblastoma cells, Aβ40 ELISA); conditions: SK-N-BE(2) cells, 6 hours
Target sequence in this assay (P56817 46-501): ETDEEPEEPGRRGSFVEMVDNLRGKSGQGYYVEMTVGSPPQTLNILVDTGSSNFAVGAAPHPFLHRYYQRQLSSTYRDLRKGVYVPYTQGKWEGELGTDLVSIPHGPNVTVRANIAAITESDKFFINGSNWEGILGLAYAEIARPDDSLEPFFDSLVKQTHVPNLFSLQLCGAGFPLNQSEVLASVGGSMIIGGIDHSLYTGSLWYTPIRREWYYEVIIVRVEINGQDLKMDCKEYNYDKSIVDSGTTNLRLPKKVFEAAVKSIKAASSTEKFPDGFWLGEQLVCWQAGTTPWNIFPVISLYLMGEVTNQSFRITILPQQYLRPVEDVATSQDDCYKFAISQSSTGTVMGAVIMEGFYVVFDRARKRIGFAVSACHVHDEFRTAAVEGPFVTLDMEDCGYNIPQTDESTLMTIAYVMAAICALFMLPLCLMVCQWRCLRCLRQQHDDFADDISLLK

BACE1 [2] = target: T1, BACE1; test: Measurement of BACE1 inhibition by fluorescence resonance energy transfer (FRET), MCA substrate; conditions: for IC50: read-out: Test Example 1 IC50, MCA-SEVNLDAEFK(DNP)-NH2 substrate, pH 4.4; for IC50 / Ki: FRET; for Ki: read-out: Test Example 1 BACE1 MCA Ki, MCA substrate
Target sequence in this assay (P56817 75-416): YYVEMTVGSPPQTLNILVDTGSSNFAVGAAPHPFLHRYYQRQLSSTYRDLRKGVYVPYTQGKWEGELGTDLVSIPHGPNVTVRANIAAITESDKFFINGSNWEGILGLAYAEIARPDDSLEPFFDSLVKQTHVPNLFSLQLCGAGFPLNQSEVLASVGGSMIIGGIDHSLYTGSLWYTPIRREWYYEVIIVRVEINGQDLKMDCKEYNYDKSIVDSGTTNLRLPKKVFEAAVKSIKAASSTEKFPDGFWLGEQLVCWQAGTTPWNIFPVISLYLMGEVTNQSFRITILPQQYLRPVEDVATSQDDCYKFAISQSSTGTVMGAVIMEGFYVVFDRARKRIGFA

[3] = Test Example 3 IC50, Aβ40 production
[4] = read-out: Test Example 3 IC50, Aβ40 production

Row | IC50 (BACE1 [2]) | SMILES | other results
1 | 73300 nM | NC1=NC2(CO1)c1cc(Br)ccc1OCC21CCCO1 (single isomer, unassigned) [RP 1a, 6′-bromo-4,5-dihydro-3H-dispiro[furan-2,3′-chromene-4′,4″-[1,3]oxazol]-2″-amine] | 
2 | 138000 nM | NC1=NC2(CO1)c1cc(Br)ccc1OCC21CCCO1 (single isomer, unassigned) [RP 1b, 6′-bromo-4,5-dihydro-3H-dispiro[furan-2,3′-chromene-4′,4″-[1,3]oxazol]-2″-amine] | 
3 | 17300 nM | CCC1Oc2ccc(Br)cc2C2(COC(N)=N2)C12COC2 (single isomer, unassigned) [RP 9a] | 
4 | 24400 nM | CCC1Oc2ccc(Br)cc2C2(COC(N)=N2)C12COC2 (single isomer, unassigned) [RP 9b] | 
5 | 15600 nM | CCCC1Oc2ccc(Br)cc2C2(C=C(N)OC2)C12COC2 (single isomer, unassigned) [RP 11a] | 
6 | 17400 nM | CCCC1Oc2ccc(Br)cc2C2(C=C(N)OC2)C12COC2 (single isomer, unassigned) [RP 11b] | 
7 | 38700 nM | NC1=NC2(CO1)c1cc(Br)ccc1OC(C1CC1)C21COC1 (single isomer, unassigned) [RP 12a] | 
8 | 81300 nM | NC1=NC2(CO1)c1cc(Br)ccc1OC(C1CC1)C21COC1 (single isomer, unassigned) [RP 12b] | 
9 | 11100 nM | CC(C)CC1Oc2ccc(Br)cc2C2(COC(N)=N2)C12COC2 (single isomer, unassigned) [RP 13a] | 
10 | 19300 nM | CC(C)CC1Oc2ccc(Br)cc2C2(COC(N)=N2)C12COC2 (single isomer, unassigned) [RP 13b] | 
11 | 19000 nM | NC1=NC2(CO1)c1cc(Br)ccc1OC(CCC(F)(F)F)C21COC1 (single isomer, unassigned) [RP 14a] | 
12 | 44200 nM | NC1=NC2(CO1)c1cc(Br)ccc1OC(CCC(F)(F)F)C21COC1 (single isomer, unassigned) [RP 14b] | 
13 |  | COc1cnc(C(=O)Nc2ccc3c(c2)C2(COC(N)=N2)C2(COC2)C(C)(C)O3)cn1 (stereo in doubt) [Example 229a, N-[(4S)-2-amino-2′,2′-dimethyldispiro[1,3-oxazole-4,4′-chromene-3′,3″-oxetan]-6′-yl]-5-methoxypyrazine-2-carboxamide] | inhibition at 30 µM (BACE1 [2]; read-out: Test Example 1 inhibition): 47.6%
14 |  | CC1(C)Oc2ccc(NC(=O)c3ccc(F)cn3)cc2C2(COC(N)=N2)C12COC2 (centres unmarked) [Example 28] | IC50 (BACE1 [1]; [4]): 19 nM; Ki (BACE1 [2]): 117 nM
15 |  | CC1(C)Oc2ccc(NC(=O)c3ncc(Cl)cc3F)cc2C2(COC(N)=N2)C12COC2 (centres unmarked) [Example 30] | IC50 (BACE1 [1]; [4]): 2.3 nM; Ki (BACE1 [2]): 51.5 nM
16 | 59600 nM | NC1=NC2(CO1)c1cc(Br)ccc1OCC21COC1 (centres unmarked) [RP 2] | 
17 | 33800 nM | NC1=NC2(CO1)c1cc(Br)ccc1OC1(CCC1)C21COC1 (centres unmarked) [RP 3] | 
18 | 61300 nM | NC1=NC2(CO1)c1cc(Br)ccc1OCC21CCC1 (centres unmarked) [RP 8] | 
19 | 30200 nM | NC1=NC2(CO1)c1cc(Br)ccc1OCC21CC1 (centres unmarked) [RP 17] | 
20 | 41300 nM | NC1=NC2(CO1)c1cc(Br)c(F)cc1OCC21CC1 (centres unmarked) [RP 18] | 
21 | 36900 nM | NC1=NC2(CO1)c1cc(Nc3ccccn3)ccc1OCC21COC1 (centres unmarked) [RP 25] | 
22 |  | NC1=NC2(CO1)c1cc(NC(=O)c3ccc(Cl)cn3)ccc1OCC21CC1 (centres unmarked) [RP 32] | Ki (BACE1 [2]): 378 nM
23 | 26000 nM | COCCCc1ccc2c(c1)C1(COC(N)=N1)C1(COC1)CO2 (centres unmarked) [RP 35] | 

Row | IC50 (BACE1 [2]) | SMILES | other results
24 | 17300 nM | Cc1cccc(CCc2ccc3c(c2)C2(COC(N)=N2)C2(COC2)CO3)c1 (centres unmarked) [RP 38] | 
25 | 46900 nM | NC1=NC2(c3cc(Br)ccc3OCC23CC3)c2cccc(F)c21 (centres unmarked) [RP 40, 6′-bromo-4″-fluorodispiro[cyclopropane-1,3′-chromene-4′,1″-isoindol]-3″-amine] | 
26 |  | CC#Cc1ccnc(-c2ccc3c(c2)C2(COC(N)=N2)C2(COC2)CO3)c1 (centres unmarked) [RP 56] | IC50 (BACE1 [1]; [3]): 740 nM
27 | 35400 nM | Cc1ncccc1-c1ccc2c(c1)C1(COC(N)=N1)C1(COC1)C1(CCC1)O2 (centres unmarked) [RP 74] | 
28 | 68300 nM | NC1=NC2(COC1)c1cc(Br)ccc1OCC21COC1 (centres unmarked) [RP 114, 6′-bromo-6H-dispiro[1,4-oxazine-3,4′-chromene-3′,3″-oxetan]-5-amine] | 
29 | 3560 nM | NC1=NC2(CO1)c1cc(-c3ccc(F)nc3)ccc1OC1(CCC1)C21COC1 (centres unmarked) [RP 119] | 
30 | 3370 nM | NC1=NC2(CO1)c1cc(-c3ccc(F)nc3F)ccc1OC1(CCC1)C21COC1 (centres unmarked) [RP 121] | 
31 | 3390 nM | NC1=NC2(CO1)c1cc(-c3ccccc3)ccc1OC1(CCC1)C21COC1 (centres unmarked) [RP 123] | 
32 | 3590 nM | NC1=NC2(CO1)c1cc(-c3ccccc3F)ccc1OC1(CCC1)C21COC1 (centres unmarked) [RP 124] | 
33 | 3630 nM | N#Cc1cc(-c2ccc3c(c2)C2(COC(N)=N2)C2(COC2)C2(CCC2)O3)ccc1F (centres unmarked) [RP 134] | 
34 | 1260 nM | CC1(C)Oc2ccc(-c3cccc(OCC(F)(F)F)c3)cc2C2(COC(N)=N2)C12COC2 (centres unmarked) [RP 143] | 
35 | 933 nM | CCSc1cccc(-c2ccc3c(c2)C2(COC(N)=N2)C2(COC2)C(C)(C)O3)c1 (centres unmarked) [RP 145] | 
36 | 2120 nM | CC1(C)Oc2ccc(-c3ccnc(Cl)c3Cl)cc2C2(COC(N)=N2)C12COC2 (centres unmarked) [RP 159] | 
37 | 981 nM | CC1(C)Oc2ccc(-c3cncc(C#N)c3)cc2C2(COC(N)=N2)C12COC2 (centres unmarked) [RP 160] | 
38 | 1410 nM | COc1cc(-c2ccc3c(c2)C2(COC(N)=N2)C2(COC2)C(C)(C)O3)c(F)cn1 (centres unmarked) [RP 161] | 
39 | 1040 nM | COc1cc(-c2ccc3c(c2)C2(COC(N)=N2)C2(COC2)C(C)(C)O3)c(Cl)cn1 (centres unmarked) [RP 162] | 
40 | 760 nM | CC1(C)Oc2ccc(C3=CCCCCC3)cc2C2(COC(N)=N2)C12COC2 (centres unmarked) [RP 165] | 
41 | 3630 nM | CC1CC=C(c2ccc3c(c2)C2(COC(N)=N2)C2(COC2)C(C)(C)O3)CC1 (centres unmarked) [RP 166] | 
42 | 869 nM | CCC/C=C/c1ccc2c(c1)C1(COC(N)=N1)C1(COC1)C(C)(C)O2 (centres unmarked) [RP 167] | 
43 | 50600 nM | NC1=NC2(CO1)c1cc(Br)ccc1OCC21CC(F)(F)C1 (centres unmarked) [RP 188] | 
44 | 17600 nM | NC1=NC2(CO1)c1cc(-c3cccnc3C(F)(F)F)ccc1OC1(CCC1)C21COC1 (centres unmarked) [RP 212] | 
45 | 40300 nM | NC1=NC2(COC1)c1cc(Br)ccc1OCC21CC1 (centres unmarked) [RP 214, 6′-bromo-6″H-dispiro[cyclopropane-1,3′-chromene-4′,3″-[1,4]oxazin]-5″-amine] | 
46 | 55800 nM | NC1=NC2(c3cc(Br)ccc3OCC23CC3)C(F)(F)CO1 (centres unmarked) [RP 216, 6′-bromo-5″,5″-difluoro-5″,6″-dihydrodispiro[cyclopropane-1,3′-chromene-4′,4″-[1,3]oxazin]-2″-amine] | 

Row | SMILES | IC50 (BACE1 [2]) | other results
47 | COc1cncc(-c2ccc3c(c2)[C@@]2(COC(N)=N2)C2(COC2)[C@@H](C)O3)c1 (racemic) [RP 81] | 1890 nM | IC50 (BACE1 [1]; [3]): 510 nM
48 | CC1(C)Oc2ccc(-c3cncnc3)cc2C2(COC(N)=N2)C12COC2 (single isomer, unassigned) [RP 51a, 2′,2′-dimethyl-6′-(pyrimidin-5-yl)dispiro[1,3-oxazole-4,4′-chromene-3′,3″-oxetan]-2-amine] | 48600 nM | 
49 | CC1(C)Oc2ccc(-c3cncnc3)cc2C2(COC(N)=N2)C12COC2 (single isomer, unassigned) [RP 51b, 2′,2′-dimethyl-6′-(pyrimidin-5-yl)dispiro[1,3-oxazole-4,4′-chromene-3′,3″-oxetan]-2-amine] | 172 nM | IC50 (BACE1 [1]; [3]): 72 nM; Ki (BACE1 [2]): 137 nM
50 | COCC#Cc1cncc(-c2ccc3c(c2)C2(COC(N)=N2)C2(COC2)CO3)c1 (centres unmarked) [RP 19, 6′-[5-(3-methoxyprop-1-yn-1-yl)pyridin-3-yl]dispiro[1,3-oxazole-4,4′-chromene-3′,3″-oxetan]-2-amine] | 2310 nM | IC50 (BACE1 [1]; [3]): 430 nM
51 | C#Cc1cncc(-c2ccc3c(c2)C2(COC(N)=N2)C2(COC2)CO3)c1 (centres unmarked) [RP 23] | 519 nM | IC50 (BACE1 [1]; [3]): 900 nM
52 | COc1cccnc1Nc1ccc2c(c1)C1(COC(N)=N1)C1(COC1)CO2 (centres unmarked) [RP 26] | 3750 nM | IC50 (BACE1 [1]; [3]): 69 nM
53 | NC1=NC2(CO1)c1cc(NC(=O)c3ccc(F)cn3)ccc1OCC21CC1 (centres unmarked) [RP 31, N-(2″-aminodispiro[cyclopropane-1,3′-chromene-4′,4″-[1,3]oxazol]-6′-yl)-5-fluoropyridine-2-carboxamide] | 1060 nM | IC50 (BACE1 [1]; [3]): 61 nM; Ki (BACE1 [2]): 1030 nM
54 | COc1ccc(F)c(-c2ccc3c(c2)C2(COC(N)=N2)C2(COC2)CO3)c1 (centres unmarked) [RP 33] | 1520 nM | IC50 (BACE1 [1]; [3]): 950 nM
55 | NC1=NC2(CO1)c1cc(-c3cncnc3)ccc1OCC21COC1 (centres unmarked) [RP 36] | 2900 nM | IC50 (BACE1 [1]; [3]): 810 nM
56 | NC1=NC2(CS1)c1cc(Br)ccc1OCC21COC1 (centres unmarked) [RP 41, 6′-bromodispiro[oxetane-3,3′-chromene-4′,4″-[1,3]thiazol]-2″-amine] | 24800 nM | IC50 (BACE1 [1]; [3]): > 30000 nM
57 | NC1=NC2(CO1)c1cc(Nc3ncccc3Cl)ccc1OC1(CCC1)C21COC1 (centres unmarked) [RP 44] | 602 nM | IC50 (BACE1 [1]; [3]): 98 nM
58 | CCC(CC)Cc1ccc2c(c1)C1(COC(N)=N1)C1(COC1)C1(CCC1)O2 (centres unmarked) [RP 47] | 2330 nM | IC50 (BACE1 [1]; [3]): 1400 nM
59 | NC1=NC2(CO1)c1cc(-c3cncc(C#CC4CC4)c3)ccc1OC1(CCC1)C21COC1 (centres unmarked) [RP 48, 6′-[5-(cyclopropylethynyl)pyridin-3-yl]trispiro[cyclobutane-1,2′ chromene-4′,4″-[1,3]oxazole-3′,3′″-oxetan]-2″-amine] | 1130 nM | IC50 (BACE1 [1]; [3]): 690 nM
60 | NC1=NC2(CO1)c1cc(-c3cncc(OCC(F)(F)F)c3)ccc1OCC21CC1 (centres unmarked) [RP 58] | 1480 nM | IC50 (BACE1 [1]; [3]): 180 nM
61 | NC1=NC2(CO1)c1cc(-c3cncc(OC(F)F)c3)ccc1OCC21CC1 (centres unmarked) [RP 60] | 1480 nM | IC50 (BACE1 [1]; [3]): 160 nM
62 | NC1=NC2(CO1)c1cc(-c3cncc(OCC(F)(F)C(F)F)c3)ccc1OCC21CC1 (centres unmarked) [RP 64] | 6120 nM | IC50 (BACE1 [1]; [3]): 2300 nM
63 | NC1=NC2(CO1)c1cc(-c3cncnc3)ccc1OC(C1CC1)C21COC1 (centres unmarked) [RP 89] | 4670 nM | 
64 | NC1=NC2(CO1)c1cc(-c3cncnc3)ccc1OCC21CCCO1 (centres unmarked) [RP 98] | 64100 nM | 
